ChEMBL document CHEMBL1777680, “Part 1: N-alkylated glycines as potent α2δ ligands” (Bioorg Med Chem Lett, 2011)

Key:
[1] = Displacement of [3H]Gabapentin from alpha2delta calcium channel in pig brain tissue homogenates after 45 mins by scintillation counting; format: tissue-based, Sus scrofa
[2] = Half life in iv dosed rat; format: ADME, organism-based; conditions: in vivo
[3] = Volume of distribution in iv dosed rat; format: ADME, organism-based; conditions: in vivo
[4] = Tmax in iv dosed rat; format: ADME, organism-based; conditions: in vivo
Rattus norvegicus = assay: Unbound clearance in iv dosed rat; format: ADME, organism-based; conditions: in vivo

Row | SMILES | IC50 [1] [µM] | further results
1 | O=C(O)CNCCOc1ccc(Cl)cc1 | 6.59 | –
2 | O=C(O)CNCCSc1ccc(F)cc1 | 2.5 | –
3 | O=C(O)CNCCSc1ccccc1 | 5.4 | –
4 | N#Cc1ccc(SCCNCC(=O)O)cc1 | 0.68 | –
5 | NCc1ccc(SCCNCC(=O)O)cc1 | 0.9 | –
6 | C[C@H](CNCC(=O)O)Oc1ccc(Br)cc1 | 6.67 | –

These reach a lower IC50 [1]. Values come first.

Row | IC50 [1] [µM] | SMILES | further results
7 | 0.195 | O=C(O)CNCCSc1ccc(Cl)cc1 | –
8 | 0.059 | O=C(O)CNCCSc1ccc(Br)cc1 | –
9 | 0.022 | O=C(O)CNCCSc1ccc2ccccc2c1 | half-life [2]: 66 min; Vd [3]: 0.6 L/kg; Tmax [4]: 15 min; CL free (Rattus norvegicus): 1.38 L/h/kg
10 | 0.428 | O=C(O)CNCCSc1cccc(Br)c1 | –
11 | 0.083 | O=C(O)CNCCSc1ccc2ccncc2c1 | –
12 | 0.441 | C[C@@H](CNCC(=O)O)Oc1ccc(Br)cc1 | –
13 | 0.523 | CC(CNCC(=O)O)Oc1ccc(Cl)cc1 (racemic) | –
14 | 0.214 | CCC(CNCC(=O)O)Oc1ccc(Br)cc1 (racemic) | –
15 | 0.04 | CCC(CNCC(=O)O)Oc1cccc(Cl)c1 (racemic) | –
